Entries after “also recorded” stand apart in the source; their conditions may differ.
Tests used:
[1] = system: cultured human adipocytes; test: In vitro lipolysis assay (glycerol release) in cultured adipocytes; format: cell-based; settings: for lipolysis after 18 hour incubation: Salmeterol 10^−6 M or 10^−8 M, Budesonide 10^−6 M in combination; for increase in lipolysis: relative to negative control (0.1% DMSO), Isoproterenol 10^−6 M positive control
Protocol: In the in vitro lipolysis assay, glycerol was detected in cell culture media via a spectrophotometric measurement after chemical oxidation with hydrogen peroxide. Glycerol was measured over a three hour time period. Levels of lipolysis in cultured human adipocytes were tested after exposure to a beta adrenergic agonist alone, a glucocorticosteroid alone, or the combination of the two for one or more preincubation periods as described in more detail below.
Human subcutaneous adipocytes were used in the lipolysis assay. Adipose tissue was harvested from liposuction or lipectomy and pre-adipocytes were isolated as follows. Briefly, fat tissue was minced and incubated at 37° C. in Krebs-Ringer bicarbonate buffer containing 1% bovine serum albumin and 0.1% collagenase in an oxygen-rich shaking chamber (5% CO2; 75 strokes/min) for 1 hour. The suspension was filtered through a 400 μm nylon mesh and centrifuged for 1 min at 100 g. The pre-adipocytes in the supernatant were washed twice with and then plated in 96 well plates at a density of cells/well. The pre-adipocytes were cultured in maintenance medium for seven days as they differentiated into adipocytes.
At −21 hours before the lipolysis assay, medium was removed from each well and replaced with 75 μl of Maintenance Medium containing appropriate drug or DMSO (vehicle) concentrations (see Experimental Design section below). Each test drug or control treatment was applied to 8 wells/group (12 treatment groups per 96-well plate). At −3 hours prior to the lipolysis assay, each well was washed two times with Wash Buffer (200 μl/wash), filled with test or control solutions made up in Assay Buffer (75 μl/well), and then incubated for three hours, i.e., until measurement of glycerol content in the Assay Buffer. For some groups, a drug was only added for the three hour incubation period (see Experimental and Control Groups Below).
The glycerol content of the Assay Buffer from each well following the incubation was used as an index for lipolysis, where an increase in glycerol indicated lipolysis. Glycerol levels were assayed colorimetrically via a commercial glycerol assay kit (Randox Laboratory, United Kingdom) and quantified by comparison to a glycerol serial dilution standard curve (3 μM-200 μM). Glycerol concentrations for each well were normalized to cell density.
In each of the following control or experimental groups n=8 corresponding to the glycerol measurements for 8 wells from a 96-well cell culture plate.

[2] = Octanol:Water; cited from earlier work
[3] = compared with albuterol 5, a short acting hydrophilic beta adrenergic agonist; cited from earlier work

Compound	lipolysis after 18 hour incubation ([1]; Isoproterenol 10^−6 M)	induction of lipolysis in cultured adipocytes (figure legend) ([1]; three hour incubation)	lipolysis compared with Isoproterenol (positive control) ([1]; three hour incubation, Isoproterenol 10^−6 M, formoterol statement holds for concentrations of 10^−6 M and above)	increase in lipolysis ([1]; three hour incubation)	Log P [2]	lipophilicity relative to albuterol [3]
budesonide	slight suppression of lipolysis	dose-dependent induction of lipolysis	lower than that observed for Isoproterenol	up to 1.5 fold	–	–
CC(C)NCC(O)c1ccc(O)c(O)c1 (stereo not drawn) [Isoproterenol, isoproterenol]	decreased lipolysis	–	–	about 2.5 fold	–	–
COc1ccc(C[C@@H](C)NC[C@H](O)c2ccc(O)c(NC=O)c2)cc1 (racemic) [Formoterol, ±N-[2-hydroxy-5-[1-hydroxy-2-[1-(4-methoxyphenyl)propan-2-ylamino]ethyl]phenyl]methanamide]	–	–	–	–	2-4	–
OCc1cc(C(O)CNCCCCCCOCCCCc2ccccc2)ccc1O (racemic) [Salmeterol, ±2-(hydroxymethyl)-4-[1-hydroxy-2-[6-(4-phenylbutoxy)hexylamino]ethyl]-phenol]	decreased lipolysis; also recorded: dose-dependent suppression of lipolysis	–	–	–	–	at least 10,000 times

Reference: patent US20100137267A1, “FORMULATIONS FOR TREATMENT OF ADIPOSE TISSUE, CUTANEOUS TISSUE AND DISORDERS, AND MUSCULAR TISSUE” (priority 2006, published 2010)
